Data from ChEMBL document CHEMBL1124939, “Synthesis of thromboxane receptor antagonists with bicyclo[3.1.0]hexane ring systems” (J Med Chem, 1990).

How the values were obtained:
Assay type in all cases: functional
[1] = organism: Rattus norvegicus; assay: The partial agonistic activity (shape change of rat WP) induced by test compound at 1 uM was calibrated for that of S-145
[2] = organism: Oryctolagus cuniculus; assay: Tested for the inhibitory activity against aggregation of rabbit platelet-rich plasma (PRP) induced by 500 uM of arachidonic acid.
[3] = organism: Rattus norvegicus; assay: Tested for the inhibitory activity against aggregation of rat washed platelets (WP) induced by 4 micro g/mL of collagen.

| SMILES | Relative agonist activity [1] | IC50 [2] [nM] | IC50 [3] [nM] |
| --- | --- | --- | --- |
| O=C([O-])CCC/C=C\C[C@H]1[C@H]2C[C@H]2C[C@@H]1NS(=O)(=O)c1ccccc1.[Na+] (racemic) | 67 | 5300 | 8.3 |
| CC1(C)[C@@H]2[C@H](C/C=C\CCCC(=O)[O-])[C@@H](NS(=O)(=O)c3ccccc3)C[C@@H]21.[Na+] (racemic) | 22 | 44000 | 4.3 |
| O=C([O-])CCC/C=C\C[C@H]1C2O[C@H]2C[C@@H]1NS(=O)(=O)c1ccccc1.[Na+] (mixture of isomers) | 82 | 2600 | 4 |
| CC1(C)[C@H]2[C@H](C/C=C\CCCC(=O)[O-])[C@@H](NS(=O)(=O)c3ccccc3)C[C@H]21.[Na+] (racemic) | 11 | 432000 | 4.1 |
| O=C(O)CCC/C=C\C[C@H]1[C@@H]2CCC(C2)[C@@H]1NS(=O)(=O)c1ccccc1 | 100 | 1000 | 1 |
| O=C([O-])CCC/C=C\C[C@H]1[C@@H]2C[C@@H]2C[C@@H]1NS(=O)(=O)c1ccccc1.[Na+] (racemic) | 22 | 11300 | 12.5 |
| O=C([O-])CCC/C=C\C[C@H]1[C@@H]2S[C@@H]2C[C@@H]1NS(=O)(=O)c1ccccc1.[Na+] (racemic) | 0 | 178000 | 10 |
| O=C([O-])CCC/C=C\C[C@H]1C2O[C@H]2C[C@H]1NS(=O)(=O)c1ccccc1.[Na+] (mixture of isomers) | 26 | 49100 | 23 |
| O=C([O-])CCC/C=C\C[C@H]1C2CC2C[C@H]1NS(=O)(=O)c1ccccc1.[Na+] (mixture of isomers) | 33 | 37800 | 25 |
| O=C([O-])CCC/C=C\C[C@H]1C2OC2C[C@@H]1NS(=O)(=O)c1ccccc1.[Na+] (mixture of isomers) | 0 | 391000 | 100 |
| O=C([O-])CCC/C=C\C[C@H]1[C@H]2S[C@H]2C[C@@H]1NS(=O)(=O)c1ccccc1.[Na+] (racemic) | 74 | 11300 | 2.9 |
